The target of data set [1] is T1, KDR (Homo sapiens, UniProt P35968).
T1 construct: expressed in transfected cells; host or cells: CHO cells
Nature of the data set: Inhibitory activity against KDR (VEGF-R2), in vitro data of Examples 170 and 207. The data set is classed as biochemical. As to conditions: 10 μM, read-out: KDR inhibition at 10 μM. The gist of the method: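 KDR tyrosine phosphorylation detected by luminescence after overnight 4° C capture of 20 μg lysate protein with PY20:AP antibody. Lysates came from cells given compound for 2 h at 37° C, then final 20 ng/ml VEGF for 5 min; compound-free medium as control.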

Data set [2] concerns the target T2, Tek (Homo sapiens, UniProt Q02763).
T2 construct: amino acids 773-1124 of the cytoplasmic kinase domain of human Tek, N-terminally fused to GST; made in house; host or cells: Sf9 insect cells (baculovirus)
Nature of the data set: Recombinant GST-Tek (Tie-2) tyrosine kinase assay (33P into poly(Glu,Tyr)). It is filed as biochemical. As to conditions: Examples 1 to 169. The gist of the method: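 Read-out is filter-bound 33P in poly(Glu,Tyr) 4:1 (10 μg/mL) after 30 min at ambient temperature with 4.0 μM ATP. Enzyme: 150 ng human GST-Tek (aa 773-1124) from insect cells, in Tris pH 7.5 with Mn2+/Mg2+ and vanadate. IC50 fitted linearly over four concentrations, usually 0.01-10 μM.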

The target in data set [3] is T3, FGFR3 (K650E) (Homo sapiens, UniProt P22607, K650E).
T3 construct: amino acids 411-806 of the cytoplasmic domain of human FGFR-3, N-terminally fused to GST; made in house; host or cells: Sf9 insect cells (baculovirus)
T3 sequence (P22607 411-806 K650E): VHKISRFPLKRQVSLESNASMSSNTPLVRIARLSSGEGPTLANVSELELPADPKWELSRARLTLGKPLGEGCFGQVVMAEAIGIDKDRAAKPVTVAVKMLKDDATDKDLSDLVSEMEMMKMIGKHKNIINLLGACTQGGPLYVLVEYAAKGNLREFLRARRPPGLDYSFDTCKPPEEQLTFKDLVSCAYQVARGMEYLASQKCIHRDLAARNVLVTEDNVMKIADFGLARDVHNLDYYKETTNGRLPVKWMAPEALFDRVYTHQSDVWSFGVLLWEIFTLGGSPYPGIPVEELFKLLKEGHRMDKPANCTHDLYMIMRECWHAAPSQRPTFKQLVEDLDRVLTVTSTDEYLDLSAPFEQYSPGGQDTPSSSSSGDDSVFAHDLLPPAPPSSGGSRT
Nature of the data set: Recombinant GST-FGFR-3-K650E tyrosine kinase assay (33P into poly(Glu,Tyr)). The data set is classed as biochemical. As to conditions: 10 μM.

Data set [4] concerns the target c-Abl (Homo sapiens, UniProt P00519). Nature of the data set: Inhibitory activity against c-Abl (Example 207). It is filed as biochemical. The note with it: Examples 171 to 206.
[5] abbreviates: Examples 1 to 169, read-out: FGFR3 (K650E) inhibition at 10 μM.
The mark [6] stands for this setting: Examples 171 to 206, read-out: FGFR3 inhibition at 10 μM.

Structures are written as SMILES. Where two headings read alike, the source gives them in different places.

T2 sequence (Q02763 773-1124): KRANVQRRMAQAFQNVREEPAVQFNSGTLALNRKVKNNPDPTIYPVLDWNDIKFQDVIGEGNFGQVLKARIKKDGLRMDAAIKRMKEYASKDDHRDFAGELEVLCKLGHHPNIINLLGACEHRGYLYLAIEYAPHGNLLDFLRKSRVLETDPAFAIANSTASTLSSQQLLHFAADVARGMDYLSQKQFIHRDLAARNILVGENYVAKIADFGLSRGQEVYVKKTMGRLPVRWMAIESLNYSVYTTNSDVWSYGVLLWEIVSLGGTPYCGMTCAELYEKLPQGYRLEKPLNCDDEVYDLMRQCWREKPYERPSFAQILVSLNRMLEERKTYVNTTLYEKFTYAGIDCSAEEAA
Sequence of c-Abl (P00519 whole entry): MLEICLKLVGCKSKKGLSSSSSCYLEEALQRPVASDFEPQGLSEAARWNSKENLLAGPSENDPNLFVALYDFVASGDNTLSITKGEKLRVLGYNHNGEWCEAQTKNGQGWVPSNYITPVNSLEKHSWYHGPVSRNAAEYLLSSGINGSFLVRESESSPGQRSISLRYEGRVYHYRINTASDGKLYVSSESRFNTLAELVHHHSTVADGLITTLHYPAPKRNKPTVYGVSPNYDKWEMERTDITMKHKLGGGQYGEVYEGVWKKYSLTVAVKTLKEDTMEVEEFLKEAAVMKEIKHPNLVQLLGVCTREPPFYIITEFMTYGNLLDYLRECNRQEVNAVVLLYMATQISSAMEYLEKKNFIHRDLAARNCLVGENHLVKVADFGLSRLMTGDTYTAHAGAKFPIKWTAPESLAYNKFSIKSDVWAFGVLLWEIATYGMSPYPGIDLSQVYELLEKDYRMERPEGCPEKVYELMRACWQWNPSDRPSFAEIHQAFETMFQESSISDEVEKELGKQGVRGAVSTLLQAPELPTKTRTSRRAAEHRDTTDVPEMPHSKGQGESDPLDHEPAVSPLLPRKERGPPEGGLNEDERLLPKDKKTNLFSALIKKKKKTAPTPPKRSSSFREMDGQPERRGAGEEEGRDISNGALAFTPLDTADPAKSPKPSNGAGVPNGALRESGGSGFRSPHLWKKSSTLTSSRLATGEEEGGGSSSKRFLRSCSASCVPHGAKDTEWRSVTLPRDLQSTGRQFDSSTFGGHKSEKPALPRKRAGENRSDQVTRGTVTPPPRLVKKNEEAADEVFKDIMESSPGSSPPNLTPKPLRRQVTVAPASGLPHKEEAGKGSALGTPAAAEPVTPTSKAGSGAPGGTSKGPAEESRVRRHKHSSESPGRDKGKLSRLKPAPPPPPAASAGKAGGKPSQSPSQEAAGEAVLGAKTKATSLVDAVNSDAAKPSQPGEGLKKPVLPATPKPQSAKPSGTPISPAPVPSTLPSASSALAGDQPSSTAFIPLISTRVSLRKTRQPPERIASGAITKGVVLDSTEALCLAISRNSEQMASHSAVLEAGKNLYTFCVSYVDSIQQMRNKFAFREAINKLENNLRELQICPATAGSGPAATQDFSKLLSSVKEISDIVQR
T1 sequence (P35968 20-1356): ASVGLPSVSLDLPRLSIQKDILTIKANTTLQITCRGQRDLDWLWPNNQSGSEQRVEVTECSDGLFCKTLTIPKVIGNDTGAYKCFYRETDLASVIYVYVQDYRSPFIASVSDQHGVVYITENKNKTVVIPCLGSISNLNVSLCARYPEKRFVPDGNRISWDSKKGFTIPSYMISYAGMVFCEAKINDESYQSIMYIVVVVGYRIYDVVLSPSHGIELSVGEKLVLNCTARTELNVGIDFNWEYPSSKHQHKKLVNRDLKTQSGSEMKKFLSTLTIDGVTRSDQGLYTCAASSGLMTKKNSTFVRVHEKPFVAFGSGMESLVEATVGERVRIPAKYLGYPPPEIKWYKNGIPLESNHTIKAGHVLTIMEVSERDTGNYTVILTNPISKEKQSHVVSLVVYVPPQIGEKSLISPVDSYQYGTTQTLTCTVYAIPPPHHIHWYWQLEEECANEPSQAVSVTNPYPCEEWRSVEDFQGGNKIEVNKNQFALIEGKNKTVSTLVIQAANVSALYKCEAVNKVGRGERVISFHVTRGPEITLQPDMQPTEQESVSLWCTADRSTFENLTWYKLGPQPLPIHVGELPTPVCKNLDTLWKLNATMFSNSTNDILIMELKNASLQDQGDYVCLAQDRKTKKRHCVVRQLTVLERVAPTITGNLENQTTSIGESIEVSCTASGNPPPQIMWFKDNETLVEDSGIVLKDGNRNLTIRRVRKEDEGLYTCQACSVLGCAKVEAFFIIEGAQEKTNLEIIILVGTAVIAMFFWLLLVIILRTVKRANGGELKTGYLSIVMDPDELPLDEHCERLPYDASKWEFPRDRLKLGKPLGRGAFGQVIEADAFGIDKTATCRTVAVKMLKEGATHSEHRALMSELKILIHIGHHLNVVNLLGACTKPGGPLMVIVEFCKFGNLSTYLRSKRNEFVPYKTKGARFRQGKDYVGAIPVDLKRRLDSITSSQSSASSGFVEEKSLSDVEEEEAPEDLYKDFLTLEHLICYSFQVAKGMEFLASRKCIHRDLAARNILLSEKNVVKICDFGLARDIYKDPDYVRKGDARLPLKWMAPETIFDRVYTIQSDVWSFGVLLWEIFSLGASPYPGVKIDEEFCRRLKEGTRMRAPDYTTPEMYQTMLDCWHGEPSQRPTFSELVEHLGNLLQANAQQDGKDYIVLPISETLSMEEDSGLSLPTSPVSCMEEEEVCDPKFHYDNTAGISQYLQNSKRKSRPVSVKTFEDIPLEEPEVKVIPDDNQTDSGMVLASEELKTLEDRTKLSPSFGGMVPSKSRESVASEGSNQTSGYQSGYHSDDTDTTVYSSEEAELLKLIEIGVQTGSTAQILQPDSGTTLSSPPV

With `COc1ccc(Cl)c(NC(=O)N(C)c2cc(Nc3ccc(N4CCN(C)CC4)cc3)ncn2)c1Cl` [Example 1, 3-(2,6-Dichloro-3-methoxy-phenyl)-1-methyl-1-{6-[4-(4-methyl-piperazin-1-yl)-phenylamino]-pyrimidin-4-yl}-urea], the melting point was 161.5 to 163 °C. Besides, the inhibition at 10 µM in data set [1] (Examples 1 to 169) fell in the range of 67 to 100%. Further, in data set [2], the inhibition at 10 µM lay in the range of 12 to 100%.
For `COc1cc(OC)c(Cl)c(NC(=O)N(C)c2cc(Nc3ccc(N4CCN(C)CC4)cc3)ncn2)c1Cl` [Example 2, 3-(2,6-Dichloro-3,5-dimethoxy-phenyl)-1-methyl-1-{6-[4-(4-methyl-piperazin-1-yl)-phenylamino]-pyrimidin-4-yl}-urea], the melting point is 221 °C (dec.). For the same molecule, the inhibition at 10 µM in data set [1] (Examples 1 to 169) is 67 to 100%. Also, in data set [3] (setting [5]), the inhibition at 10 µM fell in the range of 27 to 100%. Also, in data set [2], the inhibition at 10 µM lay in the range of 12 to 100%.
In turn, `CN1CCN(c2cccc(Nc3cc(NC(=O)Nc4c(Cl)cccc4Cl)ncn3)c2)CC1` [Example 5, 1-(2,6-Dichloro-phenyl)-3-{6-[3-(4-methyl-piperazin-1-yl)-phenylamino]-pyrimidin-4-yl}-urea] displayed a melting point of 209 to 212 °C. Besides, in data set [1] (Examples 1 to 169), the inhibition at 10 µM was in the range of 67 to 100%. Moreover, the inhibition at 10 µM in data set [3] (setting [5]) was 27 to 100%. Further, the inhibition at 10 µM in data set [2] was 12 to 100%.
`Cc1cccc(Cl)c1NC(=O)Nc1cc(NC(C)C)ncn1` [Example 65, 1-(2-Chloro-6-methyl-phenyl)-3-(6-isopropylamino-pyrimidin-4-yl)-urea] came in with a melting point of 233 °C. For the same molecule, the inhibition at 10 µM in data set [1] (Examples 1 to 169) is 67 to 100%. For the same molecule, the inhibition at 10 µM in data set [3] (setting [5]) lay in the range of 27 to 100%. For the same molecule, the inhibition at 10 µM in data set [2] lay in the range of 12 to 100%.
The matching figures for `O=C(Nc1cc(N[C@H]2CC[C@H](OC(=O)Nc3c(Cl)cccc3Cl)CC2)ncn1)Nc1c(Cl)cccc1Cl` [Example 66, (2,6-dichloro-phenyl)-carbamic acid 4-{6-[3-(2,6-dichloro-phenyl)-ureido]-pyrimidin-4-ylamino}-cyclohexylester]: 222 to 224 °C, 67 to 100%, 27 to 100% and 12 to 100%.
The matching figures for `CC(C)Nc1cc(NC(=O)Nc2c(Cl)cc(Cl)cc2Cl)ncn1` [Example 67, 1-(6-Isopropylamino-pyrimidin-4-yl)-3-(2,4,6-trichloro-phenyl)-urea]: 218 to 220 °C, 67 to 100%, 27 to 100% and 12 to 100%.
On the same counts, the results for `CC(C)Nc1cc(NC(=O)Nc2c(Cl)cccc2Cl)ncn1` [Example 68, 1-(2,6-Dichloro-phenyl)-3-(6-isopropylamino-pyrimidin-4-yl)-urea] are 203 to 204 °C, 67 to 100%, 27 to 100% and 12 to 100%.
On to `CN1CCC(COc2ccc(Nc3cc(NC(=O)Nc4c(Cl)cc(Cl)cc4Cl)ncn3)cc2)CC1` [Example 69, 1-{6-[4-(1-Methyl-piperidin-4-ylmethoxy)-phenylamino]-pyrimidin-4-yl}-3-(2,4,6-trichloro-phenyl)-urea], for which the melting point lay within 189 to 191 °C. Further, the inhibition at 10 µM in data set [1] (Examples 1 to 169) is 67 to 100%. In addition, the inhibition at 10 µM in data set [3] (setting [5]) was in the range of 27 to 100%. For the same molecule, in data set [2], the inhibition at 10 µM fell in the range of 12 to 100%.
On the same counts, the results for `Cc1cccc(Cl)c1NC(=O)Nc1cc(Nc2ccc(OCC3CCN(C)CC3)cc2)ncn1` [Example 70, 1-(2-Chloro-6-methyl-phenyl)-3-{6-[4-(1-methyl-piperidin-4-ylmethoxy)-phenylamino]-pyrimidin-4-yl}-urea] are 178 to 180 °C, 67 to 100%, 27 to 100% and 12 to 100%.
On to `COc1ccc(NC(=O)c2cccc(C(F)(F)F)c2)cc1NC(=O)N(C)c1cc(Nc2ccc(N3CCN(C)CC3)cc2)ncn1` [Example 197, N-[4-Methoxy-3-(3-methyl-3-{6-[4-(4-methyl-Piperazin-1-yl)-phenylamino]-pyrimidin-4-yl}-ureido)-phenyl]-3-trifluoromethyl-benzamide], for which the figures for the inhibition at 10 µM in data set [1] (Examples 171 to 206), in data set [3] (setting [6]) and in data set [4] were 87 to 100%, 56 to 98% and 79 to 100%, respectively.
The matching figures for `COc1ccc(NC(=O)c2ccc(CN3CCN(C)CC3)c(C(F)(F)F)c2)cc1NC(=O)N(C)c1cc(Nc2ccc(N3CCN(C)CC3)cc2)ncn1` [Example 198, N-[4-Methoxy-3-(3-methyl-3-{6-[4-(4-methyl-piperazin-1-yl)-phenyl-amino]-pyrimidin-4-yl}-ureido)-phenyl]-4-(4-methyl-piperazin-1-ylmethyl)-3-trifluoro-methyl-benzamide]: 87 to 100%, 56 to 98% and 79 to 100%.
Turning to `COc1cc(NC(=O)c2ccc(CN3CCN(C)CC3)c(C(F)(F)F)c2)cc(NC(=O)N(C)c2cc(N)ncn2)c1` [Example 199, N-{3-[3-(6-Amino-pyrimidin-4-yl)-3-methyl-ureido]-5-methoxy-phenyl}-4-(4-methyl-piperazin-1-ylmethyl)-3-trifluoromethyl-benzamide], the inhibition at 10 µM in data set [1] (Examples 171 to 206) was in the range of 87 to 100%; in data set [3] (setting [6]), 56 to 98%; in data set [4], 79 to 100%.
On the same counts, the results for `COc1cc(NC(=O)c2ccc(CN3CCN(C)CC3)c(C(F)(F)F)c2)cc(NC(=O)N(C)c2cc(Nc3ccccc3)ncn2)c1` [Example 200, N-{3-Methoxy-5-[3-methyl-3-(6-phenylamino-pyrimidin-4-yl)-ureido]-phenyl}-4-(4-methyl-piperazin-1-ylmethyl)-3-trifluoromethyl-benzamide] are 87 to 100%, 56 to 98% and 79 to 100%.
On the same counts, the results for `COc1cc(NC(=O)c2ccc(C)c(C(F)(F)F)c2)cc(NC(=O)N(C)c2cc(Nc3ccc(N4CCN(C)CC4)cc3)ncn2)c1` [Example 201, N-[3-Methoxy-5-(3-methyl-3-{6-[4-(4-methyl-piperazin-1-yl)-phenyl-amino]-pyrimidin-4-yl}-ureido)-phenyl]-4-methyl-3-trifluoromethyl-benzamide] are 87 to 100%, 56 to 98% and 79 to 100%.
On the same counts, the results for `CC(=O)Nc1cc(N(C)C(=O)Nc2cc(NC(=O)c3ccc(CN4CCN(C)CC4)c(C(F)(F)F)c3)ccc2C)ncn1` [Example 202, N-[3-[3-(6-Acetylaminopyrimidin-4-yl)-3-methylureido]-4-methylphenyL]-4-(4-methylpiperazin-1-ylmethyl)-3-trifluoromethylbenzamide] are 87 to 100%, 56 to 98% and 79 to 100%.
As to `COC(=O)Nc1cc(N(C)C(=O)Nc2cc(NC(=O)c3ccc(CN4CCN(C)CC4)c(C(F)(F)F)c3)ccc2C)ncn1` [Example 203, [6-(1-Methyl-3-{2-methyl-5-[4-(4-methyl-piperazin-1-ylmethyl)-3-trifluoromethyl-benzoylamino]-phenyl}-ureido)-pyrimidin-4-yl]-carbamic acid methyl ester], the inhibition at 10 µM in data set [1] (Examples 171 to 206) was 87 to 100%; in data set [3] (setting [6]), 56 to 98%; in data set [4] it was 79 to 100%.
On to `COC(=O)Nc1cc(N(C)C(=O)Nc2cc(C(=O)Nc3ccc(CN4CCN(C)CC4)c(C(F)(F)F)c3)ccc2C)ncn1` [Example 204, [6-(1-Methyl-3-{2-methyl-5-[4-(4-methyl-piperazin-1-ylmethyl)-3-trifluoromethyl-phenylcarbamoyl]-phenyl}-ureido)-pyrimidin-4-yl]-carbamic acid methyl ester], for which the inhibition at 10 µM lay within 87 to 100% in data set [1] (Examples 171 to 206), 56 to 98% in data set [3] (setting [6]) and 79 to 100% in data set [4].
Turning to `CC(=O)Nc1cc(N(C)C(=O)Nc2cc(C(=O)Nc3ccc(CN4CCN(C)CC4)c(C(F)(F)F)c3)ccc2C)ncn1` [Example 205, 3-[3-(6-Acetylamino-pyrimidin-4-yl)-3-methyl-ureido]-4-methyl-N-[4-(4-methyl-piperazin-1-ylmethyl)-3-trifluoromethyl-phenyl]-benzamide], the inhibition at 10 µM in data set [1] (Examples 171 to 206) lay within 87 to 100%; in data set [3] (setting [6]), 56 to 98%; in data set [4] it was 79 to 100%.
The matching figures for `Cc1ccc(C(=O)Nc2ccc(CN3CCN(C)CC3)c(C(F)(F)F)c2)cc1NC(=O)N(C)c1cc(N)ncn1` [Example 206, 3-[3-(6-Amino-pyrimidin-4-yl)-3-methyl-ureido]-4-methyl-N-[4-(4-methyl-piperazin-1-ylmethyl)-3-trifluoromethyl-phenyl]-benzamide]: 87 to 100%, 56 to 98% and 79 to 100%.

One may read the inhibition as the relative decrease from the control value, in per cent. Broadly, the melting point is the temperature of the solid-liquid transition.
